According to patent publication US9260760B2, “Method for determining complete response to anticancer therapy” (Board of Regents, The University of Texas System, priority 2012, dated 2016):

How the values were obtained:
[1] = Study 2: treatment-related toxicity of XCEL (CTCAE version 3.0); assay type: in vivo, human
Protocol: This retrospective study was approved by the institutional review board of The University of Texas M. D. Anderson Cancer Center. All sixty-six patients received concurrent capecitabine (Xeloda, Roche Nutley, N.J.) at mean daily dose 1000 mg/m^2/d bid for 14 days every 21 days or Monday-through Friday with radiation with daily celecoxib (CELEBREX®, Pfizer, N.Y.) at 200 mg PO b.i.d. from October 2000 to December 2003.
All patients were subjected to routine clinical examinations, laboratory analyses, and computed tomography before receiving XCEL described previously. All patient data were to be independently audited and radiographic images depicting CR were reviewed and agreed upon by two independent radiologists. All 19 patients had pathological confirmation of metastatic cancer ( ). Treatment-related toxicity was graded using the National Institutes of Health's Common Terminology Criteria for Adverse Events, version 3.0. Tumor responses were evaluated using RECIST criteria with complete response defined as complete radiographic disappearance of measurable or evaluable disease and normalization of tumor marker. The death date was ascertained by searching (ssdi.genealogy.rootsweb.com) using social security numbers. The cutoff point for collection of survival was October 2005.

[2] = test system: unresectable metastatic colorectal cancer; test: Study 3: maintenance XCEL after CR; RFS, PFS, OS; assay type: in vivo, human
Text: (§1) The institutional review board approved this study. […] All patients had clinical examinations, laboratory and CT scan every 2-3 months.
The principal investigator and two board-certified radiologists reviewed all the CT scan images. CR was defined according to the RECIST criteria as complete disappearance of measurable or none-measurable disease. Effective CR (eCR) was coined to describe normalization of an anatomical structure (e.g. nodes) that cannot regress completely. Confirmed CR included those patients who had CR by meeting the RECIST criteria or had achieved eCR or pathological CR. Near CR (nCR) were defined as almost complete disappearance (95-99%) of measurable disease on CT scan. Relapse free survival (RFS) was defined as the time from first radiologic CR to first recurrence, progression, or death. […] […] Treatment related toxicity was graded in accordance with the National Cancer Institute Common Toxicity Criteria for Adverse Events, version 3.0.
Continuous variables were summarized using the median (range) and categorical variables were summarized in frequency tables. Patients were censored at the date of last follow-up if their disease had not progressed or if they had not died. The death date was ascertained by searching (ssdi.genealogy.rootsweb.com) using social security numbers or phone follow-up. Therefore, it was possible for censored OS times to be greater than censored RFS and PFS times. Kaplan-Meier estimates for RFS, PFS, and OS were calculated, and group comparisons made using log-rank tests.

[3] = Study 3: treatment-related toxicity of XCEL (CTCAE version 3.0); conditions: in vivo
Text: as §1
The principal investigator and two board-certified radiologists reviewed all the CT scan images. CR was defined according to the RECIST criteria as complete disappearance of measurable or none-measurable disease. Effective CR (eCR) was coined to describe normalization of an anatomical structure (e.g. nodes) that cannot regress completely. Confirmed CR included those patients who had CR by meeting the RECIST criteria or had achieved eCR or pathological CR. Near CR (nCR) were defined as almost complete disappearance (95-99%) of measurable disease on CT scan. Relapse free survival (RFS) was defined as the time from first radiologic CR to first recurrence, progression, or death. […] OS was defined as the time from first radiologic CR to death from any cause. Treatment related toxicity was graded in accordance with the National Cancer Institute Common Toxicity Criteria for Adverse Events, version 3.0.

[4] = Disease-free interval prior to metastasis <6 mo
[5] = Disease-free interval prior to metastasis ≧6 mo
[6] = Response to first-line therapy no
[7] = Response to first-line therapy yes

Cc1ccc(-c2cc(C(F)(F)F)nn2-c2ccc(S(N)(=O)=O)cc2)cc1 [XCEL]
mean peak MCV increase before and after XCEL ([1]; compliant patients): 10 | Hematologic toxicities ([1]; in vivo): limited to grade 1 neutropenia and thrombocytopenia | grade ½ HFS ([1]; in vivo): 28% | grade ½ diarrhea ([1]; in vivo): 44% | grade ¾ lymphopenia ([1]; in vivo): 28% | Median increase in mean corpuscular volume (MCV) before and after XCEL ([1]; range 5-20): 10 | pathological CR rate (observed) ([2]; 1/19): 5% | two-year RFS ([2]; 14 unresected and R1-2 resected patients): 71% | 2-year RFS (95% CI) ([2]; All patients): 0.57 (0.39, 0.85) | 3-year OS (95% CI) ([2]; All patients): 0.79 (0.59, 1.00) | 2-year RFS (95% CI) [2, 4]: 0.64 (0 44, 1.00) | 3-year OS (95% CI) [2, 4]: 0.75 (0.54, 1.00) | 2-year RFS (95% CI) [2, 5]: 0.50 (0.28, 0.88) | 3-year OS (95% CI) [2, 5]: 0.74 (0.39, 1.00) | 2-year RFS (95% CI) ([2]; Extrahepatic no): 0.52 (0.15, 1.00) | 3-year OS (95% CI) ([2]; Extrahepatic no): 0.79 (0.66, 1.00) | 2-year RFS (95% CI) ([2]; Extrahepatic yes): 0.50 (.20, 1.00) | 3-year OS (95% CI) ([2]; Extrahepatic yes): 0.67 (0.55, 1.00) | 2-year RFS (95% CI) ([2]; LDH Abnormal): 0.33 (0.07, 1.00) | 3-year OS (95% CI) ([2]; LDH Abnormal): 0.50 (0.13, 1.00) | 2-year RFS (95% CI) ([2]; LDH Normal): 0.62 (0.42, 0.91) | 3-year OS (95% CI) ([2]; LDH Normal): 0.85 (0.68, 1.00) | 2-year RFS (95% CI) ([2]; Maintenance XCEL no): 0.00 | 3-year OS (95% CI) ([2]; Maintenance XCEL no): 0.38 (0.08, 1.00) | 2-year RFS (95% CI) ([2]; Metastatic Number non-solitary): 0.60 (0.36, 1.00) | 3-year OS (95% CI) ([2]; Metastatic Number non-solitary): 0.60 (0 29, 1.00) | 2-year RFS (95% CI) ([2]; Metastatic Number solitary): 0.56 (0.31, 1.00) | 3-year OS (95% CI) ([2]; Metastatic Number solitary): 0.89 (0.71, 1.00) | 2-year RFS (95% CI) ([2]; Metastectomy R0): 0.20 (0.03, 1.00) | 3-year OS (95% CI) ([2]; Metastectomy R0): 0.60 (0.29, 1.00) | 2-year RFS (95% CI) ([2]; Metastectomy none/R1-2): 0.71 (0.51, 0.99) | 3-year OS (95% CI) ([2]; Metastectomy none/R1-2): 0.60 (0.80, 1.00) | 3-year PFS ([2]; R0-2 resected patients): 37% | two-year RFS ([2]; R0 resected patients excluding the one pathological CR patient): 0% | 2-year RFS (95% CI) ([2]; Radiation no): 0.69 (1.40, 1.00) | 3-year OS (95% CI) ([2]; Radiation no): 0.75 (0.43, 1.00) | 2-year RFS (95% CI) ([2]; Radiation yes): 0.50 (0.28, 0.88) | 3-year OS (95% CI) ([2]; Radiation yes): 0.79 (0.56, 1.00) | 2-year RFS (95% CI) [2, 6]: 0.40 (0.25, 1.00) | 3-year OS (95% CI) [2, 6]: 0.65 (0.49, 1.00) | 2-year RFS (95% CI) [2, 7]: 0.58 (0.39, 1.00) | 3-year OS (95% CI) [2, 7]: 1.00 | 2-year RFS (95% CI) ([2]; Stage at Diagnosis II/III): 0.40 (0.19, 0.85) | 3-year OS (95% CI) ([2]; Stage at Diagnosis II/III): 0.77 (0.53, 1.00) | 2-year RFS (95% CI) ([2]; Stage at Diagnosis IV): 0.78 (0.55, 1.00) | 3-year OS (95% CI) ([2]; Stage at Diagnosis IV): 0.83 (0.58, 1.00) | 2-year RFS (95% CI) ([2]; Tumor size <8 cm): 0.62 (0.39, 1.00) | 3-year OS (95% CI) ([2]; Tumor size <8 cm): 1.00 | 2-year RFS (95% CI) ([2]; Tumor size ≧8 cm): 0.40 (0.14, 1.00) | 3-year OS (95% CI) ([2]; Tumor size ≧8 cm): 0.60 (0.29, 1.00) | Two-year RFS ([2]; all 19 patients): 57% | median RFS ([2]; all 19 patients): not reached | CEA or CA19.9 during CR ([2]; all patients with elevated serum CEA or CA19.9): normalized | 3-year PFS ([2]; confirmed CR patients): 100% | CR ([2]; eight of nine first-line irinotecan responders, XCEL alone or with radiation): 88% | two-year RFS ([2]; five R0 resected patients): 20% | estimated 3-year survival rate ([2]; from CR): 79% | four year OS ([2]; from CR, maintenance XCEL): 93% | median OS ([2]; from XCEL): 51.9 months | estimated 3-year survival rate ([2]; from diagnosis): 95% | median OS ([2]; from onset of metastasis): 73.3 months | median time from CR to relapse ([2]; in vivo): 13.1 months | relapse while on XCEL ([2]; maintenance XCEL): no patient relapsed while on XCEL | Two-year RFS estimate ([2]; maintenance XCEL group): 73% | 3-year PFS ([2]; unconfirmed CR patients): 0% | 3 year RFS ([2]; whole cohorts): 57% | Two-year RFS estimate ([2]; without maintenance XCEL): 0% | Median mean corpuscular volume (MCV) increase from baseline after XCEL [3]: 11.5 | cardiovascular toxicities [3]: No cardiovascular toxicities were encountered
